The values that follow come from ChEMBL document CHEMBL2016439, “Antitumor activity of annonaceous acetogenins in HepS and S180 xenografts bearing mice” (Bioorg Med Chem Lett, 2012).

Data set [1] can be described thus: Antitumor activity against mouse HepS cells allografted in Kunming mouse assessed as tumor growth inhibition at 60 ug/kg, ip qd administered 24 hrs post challenge for 10 days. In kind it is functional. The following applies: read-out: GI.
Data set [2] is described as follows: Antitumor activity against mouse HepS cells allografted in Kunming mouse assessed as tumor growth inhibition at 15 ug/kg, ip qd administered 24 hrs post challenge for 10 days. The following applies: read-out: GI. In kind it is functional.
Data set [3] deals with HepS. The data set can be described thus: Antitumor activity against mouse HepS cells allografted in ip dosed Kunming mouse assessed as tumor growth inhibition administered qd 24 hrs post challenge for 10 days. It counts as functional, organism-based.
Data set [4] deals with CCRF S-180. As to the kind of experiment: Antitumor activity against mouse S180 cells allografted in Kunming mouse assessed as tumor growth inhibition at 60 ug/kg, ip qd administered 24 hrs post challenge for 10 days. In kind it is functional. The following applies: CCRF S-180, ip, read-out: GI.
Data set [5] relates to CCRF S-180. As to the kind of experiment: Antitumor activity against mouse S180 cells allografted in ip dosed Kunming mouse assessed as tumor growth inhibition administered qd 24 hrs post challenge for 10 days. In kind it is functional, organism-based.
The subject of data set [6] is CCRF S-180. The data set can be described thus: Antitumor activity against mouse S180 cells allografted in Kunming mouse assessed as tumor growth inhibition at 15 ug/kg, ip qd administered 24 hrs post challenge for 10 days. The following applies: CCRF S-180, ip, read-out: GI. In kind it is functional.
The test system of data set [7] is Mus musculus. As to the kind of experiment: Toxicity in Kunming mouse allografted with mouse S180 cells assessed as adverse effects at 60 ug/kg, ip qd administered 24 hrs post challenge for 10 days. In kind it is organism-based, CCRF S-180. The following applies: in vivo, 0.06 mg/kg.
In data set [8] the test system is Mus musculus. The data set can be described thus: Toxicity in Kunming mouse allografted with mouse HepS cells assessed as adverse effects at 60 ug/kg, ip qd administered 24 hrs post challenge for 10 days. In kind it is organism-based. The following applies: in vivo, 0.06 mg/kg.
Data set [9] has as its system CCRF S-180. As to the kind of experiment: Antitumor activity against mouse S180 cells allografted in Kunming mouse assessed as improved spleen index at 40 ug/kg, ip qd administered 24 hrs post challenge for 10 days. In kind it is functional, organism-based.
The nature of data set [10]: Antitumor activity against mouse HepS cells allografted in Kunming mouse assessed as tumor growth inhibition at 40 ug/kg, ip qd administered 24 hrs post challenge for 10 days. It counts as functional. The following applies: read-out: GI.
Data set [11] relates to HepS. As to the kind of experiment: Antitumor activity against mouse HepS cells allografted in Kunming mouse assessed as improved spleen index at 40 ug/kg, ip qd administered 24 hrs post challenge for 10 days. It counts as functional, organism-based.
The test system of data set [12] is CCRF S-180. The data set can be described thus: Antitumor activity against mouse S180 cells allografted in Kunming mouse assessed as tumor growth inhibition at 40 ug/kg, ip qd administered 24 hrs post challenge for 10 days. It counts as functional. The following applies: CCRF S-180, ip, read-out: GI.

Activity calls are given as the source filed them. No cut-off for these calls is given here.

`CCCCCCCCCC[C@@H](O)[C@@H]1CC[C@@H]([C@H](O)CC[C@@H](O)[C@@H]2CC[C@@H](CCCCCCCCCC3=C[C@H](C)OC3=O)O2)O1` [SQUAMOSTATIN E]: the figures for the inhibition in vivo at 0.06 mg/kg (in data set [1]; with CCRF S-180 [4]) were 51.3% and 51.1%, respectively. In addition, the figures for the inhibition in vivo at 0.015 mg/kg (in data set [2]; in the data set on CCRF S-180 [6]) were 34.2% and 27.2%, respectively. Also, the “growth inhibition (GI)” value in the data set on HepS [3] and in the data set with CCRF S-180 [5] was “Dose-dependent effect” throughout.

In the case of `CCCCCCCCCC[C@H](O)[C@H]1CC[C@H]([C@H]2CC[C@H]([C@H](O)CCCCCCCCCC[C@@H](O)CC3=C[C@H](C)OC3=O)O2)O1` [BULLATACIN], the Activity result in the data set on Mus musculus [7] and in the data set with Mus musculus [8] was “Toxic” throughout.

As for `CCCCCCCCCCCC[C@@H](O)[C@H]1CC[C@H]([C@H](O)CCCCCC(O)CCCCCCC2=C[C@H](C)OC2=O)O1` (some centres undefined), the inhibition in vivo at 0.06 mg/kg was 67.3% in data set [1] and 48.3% in the data set with CCRF S-180 [4]. Besides, the inhibition in vivo at 0.015 mg/kg in [2] turned out to be 61.5%; in the data set with CCRF S-180 [6] it was 43.9%. Also, the “growth inhibition (GI)” value with HepS [3] and with CCRF S-180 [5] was “Dose-dependent effect” in each case.

For the compound `CCCCCC[C@H](O)CCC[C@H](O)[C@H]1CC[C@H]([C@H](O)CC[C@H](O)[C@@H]2CC[C@@H](CCCCCCCCCC3=C[C@H](C)OC3=O)O2)O1` [SQUAMOSTATIN A], the inhibition in vivo at 0.06 mg/kg in [1] amounted to 31.2%; in the data set with CCRF S-180 [4], 54.2%. Also, the figures for the inhibition in vivo at 0.015 mg/kg (in [2]; in the data set with CCRF S-180 [6]) were 15% and 52.7%, respectively. Besides, the “growth inhibition (GI)” value in the data set with HepS [3] and in the data set on CCRF S-180 [5] was “Dose-dependent effect” each time.

`CCCCCCCCCC[C@@H](O)[C@@H]1CC[C@@H]([C@@H]2CC[C@@H]([C@H](O)CCCCCCCCCC(O)CC3=CC(C)OC3=O)O2)O1` (some centres undefined) [BULLATACIN]: the inhibition in vivo at 0.015 mg/kg in data set [2] stood at 63.4%; with CCRF S-180 [6], 65.8%. Also, the “growth inhibition (GI)” value in the data set on HepS [3] and in the data set on CCRF S-180 [5] was “Dose-dependent effect” in each case.

Regarding `CCCCCCCCCC[C@H](O)[C@H]1CC[C@H]([C@H]2CC[C@H]([C@H](O)CCCCCCCCCCCCC3=C[C@H](C)OC3=O)O2)O1` [BULLANIN], the inhibition in vivo at 0.06 mg/kg in data set [1] is 70.9%; with CCRF S-180 [4] it was 63.9%. Besides, the inhibition in vivo at 0.015 mg/kg in data set [2] is 32.5%; with CCRF S-180 [6] it was 42.3%. Besides, the “growth inhibition (GI)” value with HepS [3] and in the data set with CCRF S-180 [5] was “Dose-dependent effect” each time.

Turning to `CC(=O)O[C@H]1C(=O)[C@@]2(C)[C@H]([C@H](OC(=O)c3ccccc3)[C@]3(O)C[C@H](OC(=O)[C@H](O)[C@@H](NC(=O)c4ccccc4)c4ccccc4)C(C)=C1C3(C)C)[C@]1(OC(C)=O)CO[C@@H]1C[C@@H]2O` [PACLITAXEL], the outcome in the data set on CCRF S-180 [9] and in the data set on HepS [11] was Active. For the same compound, the figures for the inhibition in vivo at 0.04 mg/kg (in [10]; with CCRF S-180 [12]) were 62.2% and 48.9%, respectively.
